Source: patent US20250289802A1, “3-(1-OXO-5-(PIPERIDIN-4-YL)ISOINDOLIN-2-YL)PIPERIDINE-2,6-DIONE DERIVATIVES AND USES THEREOF” (NOVARTIS AG, priority 2019, published 2025)

Target: T1, human TGF-β3 (Homo sapiens, UniProt P10600)
T1 sequence (P10600 301-412 limits assumed): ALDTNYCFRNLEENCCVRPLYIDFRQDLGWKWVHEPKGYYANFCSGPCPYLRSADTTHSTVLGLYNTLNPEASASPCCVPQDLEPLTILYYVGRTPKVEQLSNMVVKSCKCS
Test: not given
Settings: Biacore; cited from earlier work

| Compound | Kd [µM] |
| --- | --- |
| XOMA 089: fully human monoclonal antibody that specifically binds and neutralizes TGF-beta 1 and 2 ligands | 948 |

Target: T2, human TGF-β2 (Homo sapiens, UniProt P61812)
T2 sequence (P61812 303-414 limits assumed): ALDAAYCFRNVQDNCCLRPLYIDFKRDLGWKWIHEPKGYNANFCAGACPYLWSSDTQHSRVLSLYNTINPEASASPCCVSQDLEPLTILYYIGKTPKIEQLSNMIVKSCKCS
Test: not given
Settings: Biacore; cited from earlier work

| Compound | Kd [µM] |
| --- | --- |
| XOMA 089: fully human monoclonal antibody that specifically binds and neutralizes TGF-beta 1 and 2 ligands | 67.3 |

Target: IKZF2 (Helios) (Homo sapiens, UniProt Q96SW2+Q9UKS7)
Test: Prolabel quantification of IKZF2 protein levels in 293GT cells
Assay type: cell-based
Settings: not given
Method: The Prolabel system from DiscoverX was used to develop high-throughput and quantitative assays to measure changes in IKZF1 and IKZF2 protein levels in response to compounds. The prolabel tag was derived from the alpha fragment of beta galactosidase and has the following protein sequence: mssnslavvlqrrdwenpgvtglnrlaahppfaswrnseeartdrpsqqlrsinge. The complementary fragment of beta-galactosidase (from DiscoverX), is added to the prolabel tag to form an active beta galactosidase enzyme whose activity can be precisely measured. In this way, the levels of a fusion protein with the prolabel tag can be quantified in cell lysates.
Lentiviral vectors, based on the Invitrogen pLenti6.2/V5 DEST backbone, were constructed that placed the prolabel tag upstream of IKZF1, IKZF2 or GSPT1 and expressed the fusion protein from a CMV promoter.
To ensure moderate and consistent expression of the prolabel fusion proteins across all cells in the population, stable cell lines were constructed from cells expressing a single copy of the construct. Lentivirus packaged with the constructs was made using the Virapower kit from Invitrogen.
The levels of prolabel tagged fusion proteins in compound treated cell lines were measured as follows: Day 1, Cells were diluted to 1.0×10^6 cells/ml in normal growth medium. 17.5 μL of cells were plated in each well of a solid white 384 well plate. Plates were incubated overnight in a 37° C. tissue culture incubator.
Day 2, Serial dilutions of compounds were made in 384 well plates from 10 mM stocks. 15 μL of DMSO was added to each well of a 384 well plate. In the first column, 15 μL of stock compound was added. The solution was mixed and 15 μL was transferred to the next column. This was repeated until 20 two-fold dilutions were prepared. 2.5 μL of diluted compounds were transferred into 60 μL of cell culture medium in another 384 well plate, and mixed well. 2.5 μL of this mixture was added to the plated cells. The final DMSO concentration was 0.5% and the highest concentration of compound was 50 μM. Plates were incubated overnight (e.g., about 14 h, 18 h, or 24 h) in a 37° C. tissue culture incubator.
Day 3, Plates were removed from the incubator and allowed to equilibrate at rt for 30 minutes. Prolabel substrate (DiscoverX PathHunter Prolabel Detection Kit, User manual: 93-0180) was added as described by the manufacturers protocols. Plates were incubated at rt for three hours and luminescence was read using an Envision reader (Perkin Elmer) Data was analyzed and visualized using the Spotfire software package.

IKZF2 (Helios), sequence (Q9UKS7 whole entry): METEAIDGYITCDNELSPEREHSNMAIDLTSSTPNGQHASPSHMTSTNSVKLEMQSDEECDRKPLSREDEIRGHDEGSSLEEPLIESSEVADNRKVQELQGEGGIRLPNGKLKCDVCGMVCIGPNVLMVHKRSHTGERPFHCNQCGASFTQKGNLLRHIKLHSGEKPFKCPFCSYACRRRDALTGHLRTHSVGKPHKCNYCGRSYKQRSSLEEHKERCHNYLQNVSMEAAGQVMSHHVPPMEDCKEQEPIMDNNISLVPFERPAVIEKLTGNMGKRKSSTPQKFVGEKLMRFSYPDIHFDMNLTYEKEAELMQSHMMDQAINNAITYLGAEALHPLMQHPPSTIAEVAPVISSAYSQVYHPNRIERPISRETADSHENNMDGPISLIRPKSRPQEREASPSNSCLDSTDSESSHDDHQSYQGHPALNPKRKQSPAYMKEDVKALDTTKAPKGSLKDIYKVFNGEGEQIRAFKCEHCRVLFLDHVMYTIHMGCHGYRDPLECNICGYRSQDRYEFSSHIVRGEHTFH
IKZF2 (Helios), sequence (Q96SW2 whole entry): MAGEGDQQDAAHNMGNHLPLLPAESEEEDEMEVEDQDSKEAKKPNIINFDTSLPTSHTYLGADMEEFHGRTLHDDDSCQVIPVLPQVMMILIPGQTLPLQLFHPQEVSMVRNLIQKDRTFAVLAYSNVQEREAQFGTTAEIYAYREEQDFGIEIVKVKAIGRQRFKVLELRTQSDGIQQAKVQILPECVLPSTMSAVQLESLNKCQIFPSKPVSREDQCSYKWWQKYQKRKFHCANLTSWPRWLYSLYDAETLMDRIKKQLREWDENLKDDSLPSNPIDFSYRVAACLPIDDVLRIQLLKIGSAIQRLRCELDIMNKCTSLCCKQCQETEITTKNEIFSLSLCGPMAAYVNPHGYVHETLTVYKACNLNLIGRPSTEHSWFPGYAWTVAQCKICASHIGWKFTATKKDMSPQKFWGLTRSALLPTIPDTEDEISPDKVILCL
IKZF2 (Helios), sequence (Q16531 whole entry partner): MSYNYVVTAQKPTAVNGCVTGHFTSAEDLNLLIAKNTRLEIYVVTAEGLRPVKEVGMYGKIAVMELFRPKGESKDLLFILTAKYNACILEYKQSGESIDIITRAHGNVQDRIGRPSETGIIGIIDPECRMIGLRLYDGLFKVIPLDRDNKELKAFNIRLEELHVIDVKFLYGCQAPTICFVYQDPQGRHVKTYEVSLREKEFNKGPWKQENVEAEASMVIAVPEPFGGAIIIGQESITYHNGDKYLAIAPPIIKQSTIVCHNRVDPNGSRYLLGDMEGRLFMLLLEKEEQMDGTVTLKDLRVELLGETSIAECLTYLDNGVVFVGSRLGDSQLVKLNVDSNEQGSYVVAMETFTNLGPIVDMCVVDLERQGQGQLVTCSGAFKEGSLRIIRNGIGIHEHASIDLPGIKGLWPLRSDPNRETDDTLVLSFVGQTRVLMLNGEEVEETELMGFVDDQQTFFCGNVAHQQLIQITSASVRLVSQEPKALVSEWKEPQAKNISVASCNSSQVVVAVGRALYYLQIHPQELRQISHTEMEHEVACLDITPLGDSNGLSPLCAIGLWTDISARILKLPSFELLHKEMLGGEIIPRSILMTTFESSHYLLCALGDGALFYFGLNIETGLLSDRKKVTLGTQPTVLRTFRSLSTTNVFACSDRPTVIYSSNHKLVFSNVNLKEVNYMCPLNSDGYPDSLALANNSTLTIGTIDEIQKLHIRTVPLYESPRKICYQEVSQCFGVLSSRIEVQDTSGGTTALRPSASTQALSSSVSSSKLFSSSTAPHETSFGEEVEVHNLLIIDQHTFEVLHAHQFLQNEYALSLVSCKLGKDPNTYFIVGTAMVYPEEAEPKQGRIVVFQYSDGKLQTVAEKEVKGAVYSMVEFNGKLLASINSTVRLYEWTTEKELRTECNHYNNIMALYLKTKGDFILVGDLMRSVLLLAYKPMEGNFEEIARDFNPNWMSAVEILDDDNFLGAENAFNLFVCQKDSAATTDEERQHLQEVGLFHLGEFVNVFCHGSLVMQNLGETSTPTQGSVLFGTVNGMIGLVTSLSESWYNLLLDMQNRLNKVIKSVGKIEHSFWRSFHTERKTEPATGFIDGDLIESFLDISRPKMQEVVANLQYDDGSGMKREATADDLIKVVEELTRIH

| Compound | IKZF2 % protein reduction at 10 μM, 24 h [%] | IKZF2 % protein reduction at 30 uM [% at] |
| --- | --- | --- |
| O=C1CCC(N2Cc3cc(C4CCN(Cc5ccc(=O)[nH]c5)CC4)ccc3C2=O)C(=O)N1 (centres unmarked) [Compound I-1, 3-(1-oxo-5-(1-((6-oxo-1,6-dihydropyridin-3-yl)methyl)piperidin-4-yl)isoindolin-2-yl)piperidine-2,6-dione] | 70 | – |
| CC1CC(c2ccc3c(c2)CN(C2CCC(=O)NC2=O)C3=O)CC(C)N1Cc1ccccc1 (centres unmarked) [Compound I-2, 3-(5-(1-benzyl-2,6-dimethylpiperidin-4-yl)-1-oxoisoindolin-2-yl)piperidine-2,6-dione] | – | 35 |

Same assay, conditions: 10 μM, 24 h, 293GT cells

| Compound | IKZF2 % protein reduction at 10 μM, 24 h [%] |
| --- | --- |
| CCn1cc(C(C)N2CCC(c3ccc4c(c3)CN(C3CCC(=O)NC3=O)C4=O)CC2)cn1 (centres unmarked) [Compound I-31, 3-(5-(1-(1-(1-ethyl-1H-pyrazol-4-yl)ethyl)piperidin-4-yl)-1-oxoisoindolin-2-yl)piperidine-2,6-dione] | 70 |
| O=C1CCC(N2Cc3cc(C4CCN(Cc5ccncn5)CC4)ccc3C2=O)C(=O)N1 (centres unmarked) [Compound I-16, 3-(1-oxo-5-(1-(pyrimidin-4-ylmethyl)piperidin-4-yl)isoindolin-2-yl)piperidine-2,6-dione] | 50 |
| N#C[C@H]1CC[C@H](CN2CCC(c3ccc4c(c3)CN(C3CCC(=O)NC3=O)C4=O)CC2)CC1 (some centres unmarked) [Compound I-3, (1r,4r)-4-((4-(2-(2,6-dioxopiperidin-3-yl)-1-oxoisoindolin-5-yl)piperidin-1-yl)methyl)cyclohexane-1-carbonitrile] | 60 |
| CCC(c1cnccn1)N1CCC(c2ccc3c(c2)CN(C2CCC(=O)NC2=O)C3=O)CC1 (centres unmarked) [Compound I-33, 3-(1-oxo-5-(1-(1-(pyrazin-2-yl)propyl)piperidin-4-yl)isoindolin-2-yl)piperidine-2,6-dione] | 62 |
| COc1ccc(CN2CCC(c3ccc4c(c3)CN(C3CCC(=O)NC3=O)C4=O)CC2)cn1 (centres unmarked) [Compound I-7, 3-(5-(1-((6-methoxypyridin-3-yl)methyl)piperidin-4-yl)-1-oxoisoindolin-2-yl)piperidine-2,6-dione] | 80 |
| CC(C1CCOCC1)N1CCC(c2ccc3c(c2)CN(C2CCC(=O)NC2=O)C3=O)CC1 (centres unmarked) [Compound I-30, 3-(1-oxo-5-(1-(1-(tetrahydro-2H-pyran-4-yl)ethyl)piperidin-4-yl)isoindolin-2-yl)piperidine-2,6-dione] | 80 |
| O=C1CCC(N2Cc3cc(C4CCN(CC5CCC(CF)CC5)CC4)ccc3C2=O)C(=O)N1 (centres unmarked) [Compound I-10, 3-(5-(1-((4-(fluoromethyl)cyclohexyl)methyl)piperidin-4-yl)-1-oxoisoindolin-2-yl)piperidine-2,6-dione] | 75 |
| O=C1CCC(N2Cc3cc(C4CCN(Cc5cnccn5)CC4)ccc3C2=O)C(=O)N1 (centres unmarked) [Compound I-14, 3-(1-oxo-5-(1-(pyrazin-2-ylmethyl)piperidin-4-yl)isoindolin-2-yl)piperidine-2,6-dione] | 55 |
| CC1=CCC(CN2CCC(c3ccc4c(c3)CN(C3CCC(=O)NC3=O)C4=O)CC2)CC1 (centres unmarked) [Compound I-13, 3-(5-(1-((4-methylcyclohex-3-en-1-yl)methyl)piperidin-4-yl)-1-oxoisoindolin-2-yl)piperidine-2,6-dione] | 80 |
| CCC(c1cnn(CC)c1)N1CCC(c2ccc3c(c2)CN(C2CCC(=O)NC2=O)C3=O)CC1 (centres unmarked) [Compound I-32, 3-(5-(1-(1-(1-ethyl-1H-pyrazol-4-yl)propyl)piperidin-4-yl)-1-oxoisoindolin-2-yl)piperidine-2,6-dione] | 62 |
| O=C1CCC(N2Cc3cc(C4CCN(C5CCc6ncccc65)CC4)ccc3C2=O)C(=O)N1 (centres unmarked) [Compound I-35, 3-(5-(1-(6,7-dihydro-5H-cyclopenta[b]pyridin-5-yl)piperidin-4-yl)-1-oxoisoindolin-2-yl)piperidine-2,6-dione] | 80 |
| COC1CCC(N2CCC(c3ccc4c(c3)CN(C3CCC(=O)NC3=O)C4=O)CC2)CC1 (centres unmarked) [Compound I-36, 3-(5-(1-(4-methoxycyclohexyl)piperidin-4-yl)-1-oxoisoindolin-2-yl)piperidine-2,6-dione] | 74 |
| O=C1CCC(N2Cc3cc(C4CCN(Cc5cccnn5)CC4)ccc3C2=O)C(=O)N1 (centres unmarked) [Compound I-15, 3-(1-oxo-5-(1-(pyridazin-3-ylmethyl)piperidin-4-yl)isoindolin-2-yl)piperidine-2,6-dione] | 40 |
| Cc1ncc(CN2CCC(c3ccc4c(c3)CN(C3CCC(=O)NC3=O)C4=O)CC2)cn1 (centres unmarked) [Compound I-17, 3-(5-(1-((2-methylpyrimidin-5-yl)methyl)piperidin-4-yl)-1-oxoisoindolin-2-yl)piperidine-2,6-dione] | 50 |
| O=C1CCC(N2Cc3cc(C4CCN(Cc5ccnnc5)CC4)ccc3C2=O)C(=O)N1 (centres unmarked) [Compound I-18, 3-(1-oxo-5-(1-(pyridazin-4-ylmethyl)piperidin-4-yl)isoindolin-2-yl)piperidine-2,6-dione] | 40 |
| COc1ccc(CN2CCC(c3ccc4c(c3)CN(C3CCC(=O)NC3=O)C4=O)CC2)nc1 (centres unmarked) [Compound I-6, 3-(5-(1-((5-methoxypyridin-2-yl)methyl)piperidin-4-yl)-1-oxoisoindolin-2-yl)piperidine-2,6-dione] | 50 |
| CCOc1ccc(CN2CCC(c3ccc4c(c3)CN(C3CCC(=O)NC3=O)C4=O)CC2)cn1 (centres unmarked) [Compound I-8, 3-(5-(1-((6-ethoxypyridin-3-yl)methyl)piperidin-4-yl)-1-oxoisoindolin-2-yl)piperidine-2,6-dione] | 70 |
| O=C1CCC(N2Cc3cc(C4CCN(CCn5cccn5)CC4)ccc3C2=O)C(=O)N1 (centres unmarked) [Compound I-11, 3-(5-(1-(2-(1H-pyrazol-1-yl)ethyl)piperidin-4-yl)-1-oxoisoindolin-2-yl)piperidine-2,6-dione] | 60 |
| CCOc1ccc(CN2CCC(c3ccc4c(c3)CN(C3CCC(=O)NC3=O)C4=O)CC2)nc1 (centres unmarked) [Compound I-5, 3-(5-(1-((5-ethoxypyridin-2-yl)methyl)piperidin-4-yl)-1-oxoisoindolin-2-yl)piperidine-2,6-dione] | 60 |
